Experimental data from patent US7741445B2, “Breast cancer resistance protein (BCRP) antibodies” (University of Maryland, Baltimore, priority 1998, dated 2010).
Entries after “also recorded” stand apart in the source; their conditions may differ.

Columns and labels:
MCF-7/AdrVp = conditions: subline selected with doxorubicin in the presence of verapamil; cited from earlier work
[1] = tested on: BCRP-transfected MCF-7 cells; test: FTC effects on BBR3390 accumulation and retention, flow cytometry; type: cell-based, human; conditions: 10 uM FTC
Procedure: MCF-7 cells transfected with either the pcDNA3 empty vector or pcDNA3 containing the full-length BCRP cDNA (transfectant clone 8) were cultured as monolayers in tissue culture flasks. The effects of FTC on the accumulation of the aza-anthrapyrazole BBR3390 were measured by exposing these cells to the fluorescent aza-anthrapyrazole BBR3390 (5 uM) in the presence or absence of 10 uM FTC for 60 minutes. Then, the cells were removed from the flasks by trypsinization, and intracellular BBR3390 content was measured by flow cytometry. The effects of FTC on BBR3390 retention were measured by exposing another set of cells (vector control and transfectant clone 8) to 5 uM BBR3390 with and without 10 uM FTC for 60 minutes, washing the cells free of drug, then reincubating the cells for an additional 30 minutes in fresh medium with and without FTC. Intracellular BBR3390 content was measured by flow cytometry. (See FIG. 10).

[2] = tested on: cells that overexpress Pgp or MRP; conditions: cited from earlier work
[3] = tested on: MCF-7/BCRP transfectant clones 6 and 8; test: Sulforhodamine-B (SRB) cytotoxicity assay; type: cell-based, human; conditions: compared to clone 19, MCF-7 cells or empty vector-transfected controls
Procedure: (§1) The full-length BCRP cDNA was inserted into the multiple to cloning site of expression vector pcDNA3 (Invitrogen). Following subcloning of the pcDNA3-BCRP construct, DNA sequence analysis was performed to confirm that the insert in the clone that was chosen was in a sense orientation to the CMV promoter of the pcDNA3 vector. MCF-7 cells were transfected with pcDNA3-BCRP, using the calcium phosphate precipitation method (17), selected by culture with geneticin (G418, 1 mg/ml), then subclone by limiting dilution in 96 well flat-bottomed culture plates. Subclones were tested for expression of BCRP mRNA by Northern blot analysis, using radiolabeled Clone 8 cDNA as a probe (FIG. 4A). As a control, MCF-7 cells were also transfected with the empty pcDNA3 vector, then selected by growth in medium containing 1 mg/ml G418 (FIG. 4A).
The sensitivities of the various transfected sublines to chemotherapeutic agents were tested by the sulforhodamine-B (SRB) cytotoxicity assay (14). The LC50, defined as the concentration of drug that caused lethality to 50% of the cells, was calculated. From this, the “Fold of Resistance” (RF) was calculated by dividing the LC50 for a given drug against a transfected cell line by the LC50 of that drug against non-transfected MCF-7 cells. […] FIG. 5 contains the median LC50 values for multiple cytotoxicity experiments for all cell lines and drugs tested. […] The asterisk and solid line in FIG. 4D indicate MCF-7/W cells, the closed squares and dotted lines represent MCF-7/pcDNA3-BCRP clone 8 cells. The vertical bars in the figure represent the standard deviation of six replicate determinations.

[4] = tested on: BCRP-overexpressing clones 6 and 8 (MCF-7 cells transfected with pcDNA3-BCRP); test: Daunorubicin accumulation and retention by flow cytometry; type: cell-based, human
Procedure: as §1
Daunorubicin accumulation and retention was examined in the transfected cells by means of flow cytometry.

EPP85-181RDB = conditions: pancreatic; cited from earlier work
MCF-7/AdrVp cells = conditions: MCF-7/AdrVp vs MCF-7; cited from earlier work
EPG85-257RDB = conditions: gastric; cited from earlier work
MCF-7/Adr = conditions: breast; cited from earlier work
H69/AR = conditions: small cell lung; cited from earlier work
MCF-7/VP = conditions: breast; cited from earlier work
H209/V6 = conditions: H209/V6, small cell lung; cited from earlier work
MCF-7/MTX = conditions: breast; cited from earlier work
MCF-7/MXPR = conditions: breast; cited from earlier work
MCF-7/MXRS250 = conditions: MCF-7/MXRS250, breast; cited from earlier work
MCF-7/MXRS600 = conditions: MCF-7/MXRS600, breast; cited from earlier work
8226/MR20 = conditions: 8226/MR20, myeloma; cited from earlier work
S1M1-3.2 = conditions: S1M1-3.2, colon; cited from earlier work
H209/MX2 = conditions: H209/MX2, small cell lung; cited from earlier work
H209/MX4 = conditions: H209/MX4, small cell lung; cited from earlier work
HL-60/MX2 = conditions: HL-60/MX2, leukemia; cited from earlier work
MCF-7/Mitox = conditions: breast; cited from earlier work
MDA-MB-231RNOV = conditions: breast; cited from earlier work
HT29RNOV = conditions: colon; cited from earlier work
EPG85-257RNOV = conditions: gastric; cited from earlier work
EPP85-181RNOV = conditions: pancreatic; cited from earlier work
EPF86-079RNOV = conditions: fibrosarcoma; cited from earlier work

Compound: COc1cccc2c1C(=O)c1c(O)c3c(c(O)c1C2=O)CC(O)(C(=O)CO)CC3OC1CC(N2CCOCC2C#N)C(O)C(C)O1 (stereo not shown) [3′-deamino-3′[3-cyano-4-morpholinyl]doxorubicin]
- cross-resistance of MCF-7/AdrVp subline (MCF-7/AdrVp): marked cross-resistance

Compound: COc1ccc2c3c([nH]c2c1)[C@H](C=C(C)C)N1C(=O)[C@@H]2CCCN2C(=O)[C@@H]1C3 [FTC, Fumitremorgin C]
- effect on accumulation of BBR 3390 ([1]; 5 uM BBR3390, 60 minutes): able to enhance the accumulation
- effect on efflux of BBR 3390 ([1]; 5 uM BBR3390, 60 minutes then 30 minutes in fresh medium): inhibit the efflux
- reversal of resistance [2]: does not reverse resistance

Compound: N.N.[Cl][Pt][Cl] [cisplatin]
- resistance / sensitivity of BCRP-overexpressing clones 6 and 8 to chemotherapeutic agent [3]: remained relatively sensitive
- cross-resistance of MCF-7/AdrVp subline (MCF-7/AdrVp): remains sensitive

Compound: COc1cccc2c1C(=O)c1c(O)c3c(c(O)c1C2=O)C[C@@](O)(C(C)=O)C[C@@H]3O[C@H]1C[C@H](N)[C@H](O)[C@H](C)O1 [daunorubicin]
- intracellular steady-state concentration of drug, of that attained in the vector control cells ([4]; MCF-7/BCRP clone 6 vs pcDNA3 vector control cells): ~50%
- intracellular steady-state concentration of drug, of that attained in the vector control cells ([4]; MCF-7/BCRP clone 8 vs pcDNA3 vector control cells): approximately 30%
- resistance / sensitivity of BCRP-overexpressing clones 6 and 8 to chemotherapeutic agent [3]: displayed resistance
- Fold resistance to selecting agent (EPP85-181RDB): 846 fold
- cross-resistance of MCF-7/AdrVp subline (MCF-7/AdrVp): marked cross-resistance
- intracellular accumulation compared to MCF-7 cells (MCF-7/AdrVp cells): marked reduction
- Fold resistance to selecting agent (EPG85-257RDB): 1,857 fold

Compound: COc1cccc2c1C(=O)c1c(O)c3c(c(O)c1C2=O)C[C@@](O)(C(=O)CO)C[C@@H]3O[C@H]1C[C@H](N)[C@H](O)[C@H](C)O1 [doxorubicin]
- resistance / sensitivity of BCRP-overexpressing clones 6 and 8 to chemotherapeutic agent [3]: displayed resistance
- Fold resistance to selecting agent (MCF-7/Adr): 192 fold
- Fold resistance to selecting agent (H69/AR): 100 fold

Compound: COc1cc([C@@H]2c3cc4c(cc3[C@@H](O[C@@H]3O[C@@H]5CO[C@@H](C)O[C@H]5[C@H](O)[C@H]3O)[C@H]3COC(=O)[C@H]23)OCO4)cc(OC)c1O [etoposide]
- Fold resistance to selecting agent (MCF-7/VP): 26 fold
- Fold resistance to selecting agent (H209/V6): 22 fold

Compound: CC(=O)[C@]1(O)Cc2c(O)c3c(c(O)c2[C@@H](O[C@H]2C[C@H](N)[C@H](O)[C@H](C)O2)C1)C(=O)c1ccccc1C3=O [idarubicin]
- resistance / sensitivity of BCRP-overexpressing clones 6 and 8 to chemotherapeutic agent [3]: remained relatively sensitive
- cross-resistance of MCF-7/AdrVp subline (MCF-7/AdrVp): not

Compound: CN(Cc1cnc2nc(N)nc(N)c2n1)c1ccc(C(=O)N[C@@H](CCC(=O)O)C(=O)O)cc1 [methotrexate]
- Fold resistance to selecting agent (MCF-7/MTX): 1,000 fold

Compound: O=C1c2c(O)ccc(O)c2C(=O)c2c(NCCNCCO)ccc(NCCNCCO)c21 [mitoxantrone]
- resistance / sensitivity of BCRP-overexpressing clones 6 and 8 to chemotherapeutic agent [3]: displayed resistance; also recorded: greatest degree of resistance
- Fold resistance to selecting agent (MCF-7/MXPR): 270 fold
- Fold resistance to selecting agent (MCF-7/MXRS250): 4,600 fold
- Fold resistance to selecting agent (MCF-7/MXRS600): 7,450 fold
- Fold resistance to selecting agent (8226/MR20): 36 fold
- Fold resistance to selecting agent (S1M1-3.2): 1,435 fold
- Fold resistance to selecting agent (H209/MX2): 2 fold
- Fold resistance to selecting agent (H209/MX4): 4 fold
- Fold resistance to selecting agent (HL-60/MX2): 35 fold
- cross-resistance of MCF-7/AdrVp subline (MCF-7/AdrVp): marked cross-resistance
- Fold resistance to selecting agent (MCF-7/Mitox): 1,206 fold
- Fold resistance to selecting agent (MDA-MB-231RNOV): 93 fold
- Fold resistance to selecting agent (HT29RNOV): 100 fold
- Fold resistance to selecting agent (EPG85-257RNOV): 457 fold
- Fold resistance to selecting agent (EPP85-181RNOV): 27 fold
- Fold resistance to selecting agent (EPF86-079RNOV): 7 fold

Compound: CC(=O)O[C@H]1C(=O)[C@@]2(C)[C@H]([C@H](OC(=O)c3ccccc3)[C@]3(O)C[C@H](OC(=O)[C@H](O)[C@@H](NC(=O)c4ccccc4)c4ccccc4)C(C)=C1C3(C)C)[C@]1(OC(C)=O)CO[C@@H]1C[C@@H]2O [paclitaxel]
- resistance / sensitivity of BCRP-overexpressing clones 6 and 8 to chemotherapeutic agent [3]: remained relatively sensitive
- cross-resistance of MCF-7/AdrVp subline (MCF-7/AdrVp): remains sensitive

Compound: rhodamine 123
- intracellular accumulation compared to MCF-7 cells (MCF-7/AdrVp cells): marked reduction
